{
  "source": "paper PMC12763877",
  "about": "(Journal of Experimental & Clinical Cancer Research : CR, 2025)",
  "key": {"[1]": {"system": "zebrafish retinal vasculature", "assay": "Zebrafish hypoxia-induced retinal vascular abnormality model", "type": "in vivo, zebrafish (Danio rerio)", "conditions": "CoCl2 5 mM + GS401 2.5 ug/ml; compounds at concentrations < LD50 (A-2 1 µM); imaged at 5 dpf", "method": "Transgenic zebrafish Tg(flk: EGFP) were obtained from the China Zebrafish Resource Center and maintained at 28 ± 1 °C under a 14-hour light/10-hour dark cycle. […] Survival rates were recorded to calculate the median lethal concentration (LC₅₀). For the retinal angiogenesis assay, embryos at 1 day post fertilization (dpf) were transferred to E3 medium containing 5 mM CoCl₂·6 H₂O and 2.5 µg/mL GS4012 to induce hypoxia and abnormal vessel formation. At 3 dpf, test compounds were added and incubation continued until 5 dpf. Blank, model, and vehicle (≤ 0.1% DMSO) controls were included, with at least three replicates per group (n = 10–15 embryos). At 5 dpf, retinal vasculature was imaged using fluorescence microscopy and analyzed for branching number, vessel length, and density using ImageJ. Data are presented as mean ± standard deviation (SD) and analyzed using one-way ANOVA followed by Tukey’s post hoc test, with p < 0.05 considered statistically significant.\nFurthermore, we established a hypoxia-induced vascular dysregulation model with CoCl2 (5mM) and a VEGF inductive agent GS401 (2.5 ug/ml) in zebrafish embryos to assess the capacity of candidate compounds to regulate vascular normalization. Following Zebrafish toxicity profiling, 8 candidate compounds were administered at optimized concentrations (< LD50) to treat the zebrafish vascular abnormality model separately. […]"}, "[2]": {"system": "FAK-MMP9 signaling in HUVEC", "assay": "Western blot of FAK and MMP-9", "type": "cell-based, human", "conditions": "candesartan 15, 7.5, 3.75 µM; sunitinib 2 µM", "method": "Total protein was extracted using RIPA lysis buffer (Solarbio, China) supplemented with phenylmethylsulfonyl fluoride (PMSF; Thermo Fisher Scientific, USA), protease inhibitor cocktail (Roche, Switzerland), and phosphatase inhibitor cocktail (Roche, Switzerland). Protein concentration was determined using a BCA protein assay kit (Thermo Fisher Scientific, USA). Equal amounts of protein were separated by 10% SDS-polyacrylamide gel electrophoresis (SDS-PAGE) and transferred onto nitrocellulose (NC) membranes. […] All primary antibodies were purchased from Cell Signaling Technology (CST, USA), except for GAPDH, which was obtained from Proteintech (Wuhan, China). After washing, the membranes were incubated with HRP-conjugated goat anti-rabbit or anti-mouse IgG secondary antibodies (Biosharp, China) for 1 h at room temperature. Protein bands were visualized using an enhanced chemiluminescence (ECL) detection system and scanned using a chemiluminescence imaging system."}, "HUVEC": {"system": "HUVEC", "assay": "Annexin V-FITC/PI apoptosis assay (flow cytometry)", "type": "cell-based, human", "conditions": "3.75-15 µM", "text": "The Annexin V-FITC/PI Apoptosis Detection Kit (Vazyme) was used to detect cell apoptosis according to the manufacturer’s instructions. Cells were stained with the kit and then analyzed using flow cytometry (Becton Dickinson [BD])."}},
  "data": [
    {"smiles": "CCOc1nc2cccc(C(=O)O)c2n1Cc1ccc(-c2ccccc2-c2nnn[nH]2)cc1", "note": "[Compound A-2, Candesartan]", "values": [
      {"measurement": "Effect on hypoxia-induced retinal vascular pathology (ectopic branching, vascular architecture)", "setting": "[1]", "result": "markedly attenuated these pathological features"},
      {"measurement": "Expression of MMP9 and FAK", "setting": "[2]", "result": "significantly decreased the expression of MMP9 and FAK"},
      {"measurement": "HUVEC apoptosis", "setting": "HUVEC", "result": "no apoptosis was observed"}
    ]}
  ]
}
